Results on one compound are retold here after EP0184471A1, “Product containing an antiprogestomimetic and a uterotonic substance” (ROUSSEL-UCLAF, priority 1984, dated 1986).

For this experiment, the system named is grossesse apparemment normale et une aménorhée de 49 jours au plus. The experiment can be described thus: Clinical study of termination of early pregnancy: oral RU 486 alone or with an intramuscular sulprostone injection. Format: in vivo, jeunes femmes. The method, then: L'étude a porté sur 33 jeunes femmes en bonne santé présentant une grossesse apparemment normale et une aménorhée de 49 jours au plus.
Le composé RU 486 a été administré oralement à différentes doses : • 1) 25 mg 2 fois par jour pendant 4 jours. • 2) 25 mg 4 fois par jour pendant 4 jours.
Chez 16 patientes une injection intramusculaire de 0,25 mg de la méthylsulfonylamide de la 16-phénoxytétranor PG E2 (sulprostone) a été administrée le matin du dernier jour de traitement par le RU 486. Les sujets ont jeuné au moins une heure avant jusqu'à une heure après la prise du produit.
Les résultats obtenus sont rapportés dans le tableau I ci-après.

The mark [1] stands for this setting: number of patients, RU 486 25 mg orally 2 times per day for 4 days (25 x 2), n=11 group A, n=9 group B.
Where [2] appears, read: number of patients, RU 486 25 mg orally 4 times per day for 4 days (25 x 4), n=6 group A, n=7 group B.
The mark [3] stands for this setting: number of patients, Total of both RU 486 doses, n=17 group A, n=16 group B.
Setting [4] is: percent of patients, Total of both RU 486 doses, n=17 group A.

Marks after values point to notes of the source that are not given here.

`CC#C[C@]1(O)CC[C@H]2[C@@H]3CCC4=CC(=O)CCC4=C3[C@@H](c3ccc(N(C)C)cc3)C[C@@]21C` [RU 486, 11β-(4-diméthylaminophényl) 170 - hydroxy 17α-(prop-l-ynyl) estra 4,9 - dièn 3 - one]: the Avortements complets reads like this: under setting [1], 8; under setting [2], 5; under setting [3], 13; (percent of patients, Total of both RU 486 doses, n=17 group A, n=16 group B) 76,5%. For the same compound, the Avortements incomplets is, setting by setting: under setting [1], 1; under setting [2], 0; under setting [3], 1; under setting [4], 5,9%. The “Poursuite de la grossesse” value reads like this: (number of patients, RU 486 25 mg orally 2 times per day for 4 days (25 x 2), n=11 group A, n=9 group B, group A value includes one extra-uterine pregnancy) 2*; under setting [2], 1; under setting [3], 3; under setting [4], 17,6%.
